According to ChEMBL document CHEMBL4229543, “Squaramides as novel class I and IIB histone deacetylase inhibitors for topical treatment of cutaneous t-cell lymphoma” (Bioorg Med Chem Lett, 2018):
In brackets after ≈: the same amount, converted by molar mass.

Assays:
Histone deacetylase 1 = Histone deacetylase 1 (Homo sapiens, UniProt Q13547); assay: Inhibition of human recombinant HDAC1 using Fluor de Lys as substrate after 2 hrs by fluorescence method
[1] = Clearance in human hepatocytes assessed per million cells at 1 uM after 5 to 90 mins by LC-MS/MS analysis; format: ADME, cell-based, Hepatocyte; conditions: read-out: CLH
[2] = Solubility in pH 7.4 phosphate buffer solution at 100 uM after 24 hrs by HPLC method; format: physicochemical; conditions: for solubility at 24 h, 100 µM: phosphate buffer, pH 7.4
HuT78 = assay: Pro-apoptotic activity in human HUT78 cells after 18 hrs by caspase-Glo 3/7 assay; format: functional, cell-based; conditions: HuT78, 18 h
[3] = Solubility in PG/EtOH (96%) at 30 mg/mL after 24 hrs by UV-spectrometric method; format: physicochemical; conditions: for solubility at 24 h: PG/EtOH (96%)

Chain of Histone deacetylase 1 (Q13547 whole entry): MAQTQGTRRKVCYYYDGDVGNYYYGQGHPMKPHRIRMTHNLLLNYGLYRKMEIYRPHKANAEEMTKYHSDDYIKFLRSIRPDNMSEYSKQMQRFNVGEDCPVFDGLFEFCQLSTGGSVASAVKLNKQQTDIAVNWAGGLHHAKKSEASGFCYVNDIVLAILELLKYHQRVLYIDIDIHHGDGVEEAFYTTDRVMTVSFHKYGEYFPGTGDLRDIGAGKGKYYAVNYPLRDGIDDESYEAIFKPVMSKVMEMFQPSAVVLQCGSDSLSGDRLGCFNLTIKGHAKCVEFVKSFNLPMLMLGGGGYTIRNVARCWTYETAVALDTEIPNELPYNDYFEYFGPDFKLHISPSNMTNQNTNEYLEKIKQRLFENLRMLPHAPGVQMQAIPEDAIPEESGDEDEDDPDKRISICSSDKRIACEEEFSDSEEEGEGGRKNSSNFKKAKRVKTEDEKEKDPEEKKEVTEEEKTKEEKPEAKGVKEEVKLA

SMILES | Ki (Histone deacetylase 1) [nM] | hepatocyte CLint at 1 µM [1] [µL/min/1e6 cells] | solubility at 24 h, 100 µM [2] [µM] | EC50 (HuT78) [nM] | solubility at 24 h [3] [µM] | solubility ([2]; buffer, pH 7.4, 24 h, 100 µM) [µM] | solubility ([3]; 24 h) [µM]
Cc1ccccc1Nc1c(NCCCCCC(=O)NO)c(=O)c1=O | 4.4 | < 5 | 89 (≈ 29.5 µg/mL) | 280 | 12000 (≈ 3980 µg/mL) |  | 
C[C@H](CCCCC(=O)NO)Nc1c(Nc2ccc(N(C)C)cc2)c(=O)c1=O | 2.7 | < 5 | 80 (≈ 30 µg/mL) | 13 | 27000 (≈ 10100 µg/mL) |  | 
Cc1ccc([C@H](C)Nc2c(NCCCCCC(=O)NO)c(=O)c2=O)cc1 | 2.3 | < 5 | 76 (≈ 27.3 µg/mL) | 130 | 5600 (≈ 2010 µg/mL) |  | 
O=C(CCCCNc1c(Nc2ccccc2)c(=O)c1=O)NO | 12 | < 5 | 87 (≈ 26.4 µg/mL) | 290 | 32000 (≈ 9710 µg/mL) |  | 
CC[C@H](Nc1c(NCCCCCC(=O)NO)c(=O)c1=O)c1ccccc1 | 9.4 | < 5 | 75 (≈ 27 µg/mL) | 170 | 57000 (≈ 20500 µg/mL) |  | 
C[C@@H](CCCCC(=O)NO)Nc1c(Nc2ccc(N(C)C)cc2)c(=O)c1=O | 4.3 | 3.6 | 89 (≈ 33.3 µg/mL) | 44 | 28000 (≈ 10500 µg/mL) |  | 
C[C@H](Nc1c(NCCCCCC(=O)NO)c(=O)c1=O)c1ccccc1 | 2.5 | < 5 | 73 (≈ 25.2 µg/mL) | 220 | 28000 (≈ 9670 µg/mL) |  | 
Cc1cccc([C@@H](C)Nc2c(NCCCCCC(=O)NO)c(=O)c2=O)c1 | 11 | < 5 | 89 (≈ 32 µg/mL) | 160 | 82000 (≈ 29500 µg/mL) |  | 
Cc1ccccc1[C@H](C)Nc1c(NCCCCCC(=O)NO)c(=O)c1=O | 2.3 | < 5 | 92 (≈ 33.1 µg/mL) | 560 | 47000 (≈ 16900 µg/mL) |  | 
O=C(CCCCCNc1c(NCc2ccccc2)c(=O)c1=O)NO | 7.3 | < 4.8 | 75 (≈ 24.9 µg/mL) | 270 | 5700 (≈ 1890 µg/mL) |  | 
CC(C)(Nc1c(NCCCCCC(=O)NO)c(=O)c1=O)c1ccccc1 | 11 | < 5 | 88 (≈ 31.6 µg/mL) | 1100 | > 84000 |  | 
C[C@@H](Nc1c(NCCCCCC(=O)NO)c(=O)c1=O)c1ccccc1 | 4.8 | < 5 | 80 (≈ 27.6 µg/mL) | 100 | 39000 (≈ 13500 µg/mL) |  | 
O=C(CCCCC(Cc1ccccc1)Nc1c(Nc2ccc(C(F)(F)F)cc2)c(=O)c1=O)NO (racemic) | 1.9 | 6.6 |  | 38 | 5700 (≈ 2710 µg/mL) | < 1 | 
CC(C)C(CCCCC(=O)NO)Nc1c(Nc2ccc(C(F)(F)F)cc2)c(=O)c1=O (racemic) | 12 | 27 | 5.3 (≈ 2.27 µg/mL) | 280 | 6300 (≈ 2690 µg/mL) |  | 
O=C(CCCCCCC(=O)Nc1ccccc1)NO [VORINOSTAT] |  | < 5 | 87 (≈ 23 µg/mL) |  |  |  | 32000 (≈ 8460 µg/mL)

Continued, values first:

Ki (Histone deacetylase 1) [nM] | hepatocyte CLint at 1 µM [1] [µL/min/1e6 cells] | solubility at 24 h, 100 µM [2] [µM] | EC50 (HuT78) [nM] | solubility at 24 h [3] [µM] | solubility ([2]; buffer, pH 7.4, 24 h, 100 µM) [µM] | solubility ([3]; 24 h) [µM] | SMILES
0.063 | 17 | 82 (≈ 31.8 µg/mL) | 12 |  |  |  | COc1ccc(Nc2c(NC3(CCCCC(=O)NO)CCC3)c(=O)c2=O)cc1
0.057 | 7.2 | 8.1 (≈ 2.68 µg/mL) | 1.7 | 1800 (≈ 596 µg/mL) |  |  | Cc1ccc(Nc2c(NCCCCCC(=O)NO)c(=O)c2=O)cc1
0.23 | 11 | 4.5 (≈ 1.73 µg/mL) | 4 | 4700 (≈ 1810 µg/mL) |  |  | O=C(CCCCCNc1c(Nc2ccc(C(F)(F)F)cc2)c(=O)c1=O)NO
0.58 | 31 | 27 (≈ 11.2 µg/mL) | 10 | 70000 (≈ 29100 µg/mL) |  |  | C[C@H](CCCCC(=O)NO)Nc1c(Nc2ccc(OC(F)(F)F)cc2)c(=O)c1=O
0.91 | < 5 | 12 (≈ 4.32 µg/mL) | 6.2 | 1400 (≈ 505 µg/mL) |  |  | CN(C)c1ccc(Nc2c(NCCCCCC(=O)NO)c(=O)c2=O)cc1
1.4 | < 5 | 91 (≈ 29.4 µg/mL) | 84 | 8700 (≈ 2810 µg/mL) |  |  | O=C(CCCCCNc1c(NC2CCCCC2)c(=O)c1=O)NO
0.5 | < 5 | 93 (≈ 36.3 µg/mL) | 290 | 2600 (≈ 1020 µg/mL) |  |  | COc1cc(Nc2c(NCCCCCC(=O)NO)c(=O)c2=O)ccc1N(C)C
0.56 | < 5 | 6 (≈ 1.99 µg/mL) | 26 | 1800 (≈ 596 µg/mL) |  |  | O=C(CCCCCCNc1c(Nc2ccccc2)c(=O)c1=O)NO
0.15 | 10 | 10 (≈ 4.38 µg/mL) | 7.2 | 21000 (≈ 9210 µg/mL) |  |  | C[C@H](CCCCC(=O)NO)Nc1c(Nc2ccc3cc(C(F)(F)F)[nH]c3c2)c(=O)c1=O
0.27 | < 5 | 4.4 (≈ 1.63 µg/mL) | 28 | 9100 (≈ 3370 µg/mL) |  |  | Cc1cc2ccc(Nc3c(NCCCCCC(=O)NO)c(=O)c3=O)cc2[nH]1
0.39 | 18 | 79 (≈ 26.2 µg/mL) | 26 | 11000 (≈ 3650 µg/mL) |  |  | Cc1cccc(Nc2c(NCCCCCC(=O)NO)c(=O)c2=O)c1
0.056 | 9.2 | 99 (≈ 37.2 µg/mL) | 5.5 |  |  |  | COc1ccc(Nc2c(NC(C)(C)CCCCC(=O)NO)c(=O)c2=O)cc1
0.29 | < 4.8 | 47 (≈ 14.9 µg/mL) | 28 | 2200 (≈ 698 µg/mL) |  |  | O=C(CCCCCNc1c(Nc2ccccc2)c(=O)c1=O)NO
0.28 | 21 | 30 (≈ 12 µg/mL) | 18 | 20000 (≈ 7990 µg/mL) |  |  | CC(CCCCC(=O)NO)Nc1c(Nc2ccc(C(F)(F)F)cc2)c(=O)c1=O (racemic)
0.69 | < 5 | 93 (≈ 30.8 µg/mL) | 32 | 46000 (≈ 15200 µg/mL) |  |  | CC(CCCCC(=O)NO)Nc1c(Nc2ccccc2)c(=O)c1=O (racemic)
0.51 | 25 | 6.6 (≈ 2.73 µg/mL) | 21 | 25000 (≈ 10300 µg/mL) |  |  | CCC(CCCCC(=O)NO)Nc1c(Nc2ccc(C(F)(F)F)cc2)c(=O)c1=O (racemic)
0.27 | 7.1 | 85 (≈ 30.7 µg/mL) | 12 | 11000 (≈ 3980 µg/mL) |  |  | COc1ccc(Nc2c(NC(C)CCCCC(=O)NO)c(=O)c2=O)cc1 (racemic)
0.097 | < 6.5 | 83 (≈ 28.7 µg/mL) | 5.6 | 4900 (≈ 1690 µg/mL) |  |  | Cc1ccc(Nc2c(NC(C)CCCCC(=O)NO)c(=O)c2=O)cc1 (racemic)
